Data set [1] deals with Puccinia Recondita f. sp. Tritici. Briefly: Puccinia recondita f. sp. tritici / wheat / leaf disc preventative (brown rust). Type of data set: in vivo. The following applies: foliar, 200 ppm in the applied formulation, wheat leaf segments cv. Kanzler, preventative (inoculated 1 day after application), assessed 7 to 9 days after application, read-out: disease control compared to untreated control leaf disks. The procedure:
Leaf disks or leaf segments of various plant species are cut from plants grown in a greenhouse. The cut leaf disks or segments are placed in multiwell plates (24-well format) onto water agar. The leaf disks are sprayed with a test solution before (preventative) or after (curative) inoculation. Compounds to be tested are prepared as DMSO solutions (max. 10 mg/ml) which are diluted to the appropriate concentration with 0.025% Tween20 just before spraying. The inoculated leaf disks or segments are incubated under defined conditions (temperature, relative humidity, light, etc.) according to the respective test system. A single evaluation of disease level is carried out 3 to 14 days after inoculation, depending on the pathosystem. Percent disease control relative to the untreated check leaf disks or segments is then calculated. Wheat leaf segments cv. Kanzler were placed on agar in multiwell plates (24-well format) and sprayed with the formulated test compound diluted in water. The leaf disks were inoculated with a spore suspension of the fungus 1 day after application. The inoculated leaf segments were incubated at 19° C. and 75% relative humidity (rh) under a light regime of 12 hours light/12 hours darkness in a climate cabinet and the activity of a compound was assessed as percent disease control compared to untreated when an appropriate level of disease damage appears in untreated check leaf segments (7 to 9 days after application). The following compounds at 200 ppm in the applied formulation give at least 80% disease control in this test when compared to untreated control leaf disks under the same conditions, which show extensive disease development.

The test system is the same in data set [2]. Kind of data set: Puccinia recondita f. sp. tritici / wheat / leaf disc curative (brown rust). Type of data set: in vivo. The following applies: foliar, 200 ppm in the applied formulation, wheat leaf segments cv. Kanzler, curative (applied 1 day after inoculation), assessed 6 to 8 days after application, read-out: disease control compared to untreated control leaf disks. As for the experimental part: Leaf disks or leaf segments of various plant species are cut from plants grown in a greenhouse. The cut leaf disks or segments are placed in multiwell plates (24-well format) onto water agar. The leaf disks are sprayed with a test solution before (preventative) or after (curative) inoculation. Compounds to be tested are prepared as DMSO solutions (max. 10 mg/ml) which are diluted to the appropriate concentration with 0.025% Tween20 just before spraying. The inoculated leaf disks or segments are incubated under defined conditions (temperature, relative humidity, light, etc.) according to the respective test system. A single evaluation of disease level is carried out 3 to 14 days after inoculation, depending on the pathosystem. Percent disease control relative to the untreated check leaf disks or segments is then calculated.
Wheat leaf segments cv. Kanzler are placed on agar in multiwell plates (24-well format). The leaf segments are then inoculated with a spore suspension of the fungus. Plates were stored in darkness at 19° C. and 75% relative humidity. The formulated test compound diluted in water was applied 1 day after inoculation. The leaf segments were incubated at 19° C. and 75% relative humidity under a light regime of 12 hours light/12 hours darkness in a climate cabinet and the activity of a compound was assessed as percent disease control compared to untreated when an appropriate level of disease damage appears in untreated check leaf segments (6 to 8 days after application).
The following compounds at 200 ppm in the applied formulation give at least 80% disease control in this test when compared to untreated control leaf disks under the same conditions, which show extensive disease development.

The subject of data set [3] is Glomerella Lagenarium (Colletotrichum Lagenarium). Kind of data set: Glomerella lagenarium (Colletotrichum lagenarium) liquid culture / cucumber / preventative (anthracnose). In kind it is cell-based. The note with it: Colletotrichum orbiculare; 20 ppm in the applied formulation; liquid culture in PDB, 24° C., 3 to 4 days after application; read-out: disease control compared to untreated control (inhibition of growth measured photometrically). As for the experimental part: Mycelia fragments or conidia suspensions of a fungus prepared either freshly from liquid cultures of the fungus or from cryogenic storage, are directly mixed into nutrient broth. DMSO solutions of the test compound (max. 10 mg/ml) are diluted with 0.025% Tween20 by a factor of 50 and 10 μl of this solution is pipetted into a microtiter plate (96-well format). The nutrient broth containing the fungal spores/mycelia fragments is then added to give an end concentration of the tested compound. The test plates are incubated in the dark at 24° C. and 96% relative humidity. The inhibition of fungal growth is determined photometrically after 2 to 7 days, depending on the pathosystem, and percent antifungal activity relative to the untreated check is calculated.
Conidia of the fungus from cryogenic storage are directly mixed into nutrient broth (PDB—potato dextrose broth). After placing a (DMSO) solution of test compound into a microtiter plate (96-well format), the nutrient broth containing the fungal spores is added. The test plates are incubated at 24° C. and the inhibition of growth is measured photometrically 3 to 4 days after application.
The following compounds at 20 ppm in the applied formulation give at least 80% disease control in this test when compared to untreated control under the same conditions, which show extensive disease development.

Experimental findings from patent US20190284148A1, “MICROBIOCIDAL OXADIAZOLE DERIVATIVES” (SYNGENTA PARTICIPATIONS AG, priority 2016, published 2019) are described below.

Some results are limits rather than exact numbers.

Usually inhibition stands for how much of the control response was suppressed. As usually defined, the melting point is the temperature, or range, at which the solid turns liquid.

For `CC(=O)Nc1ccc(-c2noc(C(F)(F)F)n2)cc1C` [Compound 1.3, N-[2-methyl-4-[5-(trifluoromethyl)-1,2,4-oxadiazol-3-yl]phenyl]acetamide], the melting point fell in the range of 153 to 179 °C. For the same compound, the pest or weed control at 200 ppm in data set [1] is ≥ 80%. Moreover, the pest or weed control at 200 ppm in data set [2] is ≥ 80%. The inhibition at 20 ppm in data set [3] is ≥ 80%.

`CC(=O)Nc1ccc(-c2noc(C(F)(F)F)n2)cc1F` [Compound 1.7, N-[2-fluoro-4-[5-(trifluoromethyl)-1,2,4-oxadiazol-3-yl]phenyl]acetamide] displayed a melting point of 120 to 126 °C. Besides, in data set [1], the pest or weed control at 200 ppm is ≥ 80%. Further, the pest or weed control at 200 ppm in data set [2] was ≥ 80%. The inhibition at 20 ppm in data set [3] was ≥ 80%.

As to `CCOC(=O)Nc1ccc(-c2noc(C(F)(F)F)n2)cc1F` [Compound 1.9, ethyl N-[2-fluoro-4-[5-(trifluoromethyl)-1,2,4-oxadiazol-3-yl]phenyl]carbamate], the melting point lay in the range of 86 to 91 °C. Besides, the pest or weed control at 200 ppm in data set [1] is ≥ 80%. In addition, the pest or weed control at 200 ppm in data set [2] is ≥ 80%. Also, in data set [3], the inhibition at 20 ppm is ≥ 80%.

Regarding `CON(C)C(=O)Nc1ccc(-c2noc(C(F)(F)F)n2)cc1C` [Compound 1.10, 1-methoxy-1-methyl-3-[2-methyl-4-[5-(trifluoromethyl)-1,2,4-oxadiazol-3-yl]phenyl]urea], the melting point lay in the range of 73 to 76 °C. Also, the pest or weed control at 200 ppm in data set [1] is ≥ 80%. Further, in data set [2], the pest or weed control at 200 ppm is ≥ 80%. In addition, in data set [3], the inhibition at 20 ppm is ≥ 80%.
